# Experimental data from patent US11007194B2, “Method of treating a proliferative disease” (Array BioPharma Inc., priority 2011, dated 2021).
# Test system: Hmex1906 primary human melanoma tumors
# Experiment: Hmex1906 primary human melanoma xenograft in nude mice, emergence of resistance under continuous vs intermittent dosing
# Format: in vivo
# Conditions: 5 mg/kg bid
# Procedure: Hmex1906 primary human melanoma tumors are implanted at passage 3 into nude mice. The mice were monitored until the implanted tumors reached 200-400 mm^3. Once this size is reached, the mice are dosed bid with 5 mg/kg of a Raf inhibitor (Compound of Formula II) for 4 weeks. Some of the mice continue treatment while others are subject to an intermittent treatment schedule of 4 weeks of treatment and 2 weeks of drug holiday.
smiles,measurement,setting,value
COC(=O)N[C@@H](C)CNc1nccc(-c2cn(C(C)C)nc2-c2cc(Cl)cc(NS(C)(=O)=O)c2F)n1 [Compound of Formula II],emergence of resistance to the BRAF inhibitor,"continuous dosing, nude mice with Hmex1906 tumors (200-400 mm^3 at start)",Resistance emerged in all mice
same,emergence of resistance to the BRAF inhibitor,"intermittent schedule: 4 weeks of treatment and 2 weeks of drug holiday, nude mice with Hmex1906 tumors, 5 mg/kg",no evidence of resistance
same,emergence of resistance to the BRAF inhibitor,"intermittent schedule: 4 weeks of treatment and 2 weeks of drug holiday, nude mice with Hmex1906 tumors, listed as BRAF inhibitor of formula II, 5 mg/kg",delays or prevents the onset of resistance
